# Assay results taken from ChEMBL document CHEMBL5375954, “Discovery and Evaluation of C6-Substituted Pyrazolopyrimidine-Based Bisphosphonate Inhibitors of the Human Geranylgeranyl Pyrophosphate Synthase and Evaluation of Their Antitumor Efficacy in Multiple Myeloma, Pancreatic Ductal Adenocarcinoma, and Colorectal Cancer” (J Med Chem, 2023).
# Calls of active or inactive are those of the source. No cut-off for these calls is given here.
# Legend:
# [1] = target: T1, Geranylgeranyl pyrophosphate synthase (Homo sapiens, UniProt O95749); test: Inhibition of N-terminal His6 tagged human GGPPS expressed in Escherichia coli BL21(DE3) cells in presence of FPP and [14C]IPP by scintillation counting analysis
# T1 sequence (O95749 whole entry): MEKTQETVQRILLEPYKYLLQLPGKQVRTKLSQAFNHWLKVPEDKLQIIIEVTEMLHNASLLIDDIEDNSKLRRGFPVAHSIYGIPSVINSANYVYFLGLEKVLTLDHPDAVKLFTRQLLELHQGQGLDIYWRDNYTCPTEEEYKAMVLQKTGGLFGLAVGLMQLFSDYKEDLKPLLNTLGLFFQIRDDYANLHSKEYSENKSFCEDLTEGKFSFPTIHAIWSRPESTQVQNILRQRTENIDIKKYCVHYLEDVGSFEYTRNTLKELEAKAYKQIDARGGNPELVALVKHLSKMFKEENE
# HCT-116 [2] = test: Induction of apoptosis in human HCT-116 cells assessed as early apoptotic cells at 1 uM incubated for 72 hrs in presence of geranylgeraniol by APC-Annexin-V/7-AAD staining based flow cytometry (reference value: 1.16%); assay type: functional
# [3] = Hepatotoxicity in male NSG mouse xenografted with human RPMI-8226 cells assessed as foci of necrosis at 3 mg/kg, ip administered 3 times a week for 26 days and measured 48 hrs post last dose by H and E staining based assay; assay type: toxicity, organism-based; details: in vivo, 672 h, time 28 day
# [4] = Hepatotoxicity in female NSG mouse xenografted with human RPMI-8226 cells assessed as foci of necrosis at 3 mg/kg, ip administered 3 times a week for 26 days and measured 48 hrs post last dose by H and E staining based assay; assay type: toxicity, organism-based; details: in vivo, 672 h, time 28 day
# [5] = Metabolic stability in Sprague-Dawley rat liver microsomes assessed as compound remaining incubated for 45 mins in absence of NADPH by LC-MS/MS analysis; assay type: ADME, Microsome; details: 0.75 h
# [6] = target: T2, Farnesyl pyrophosphate synthase (Homo sapiens) (UniProt P14324); test: Inhibition of N-terminally His6-tagged recombinant human FPPS expressed in Escherichia coli BL21(DE3) cells using […] and [14C]IPP as substrate at 10 uM preincubated for 10 mins followed by substrate addition by scintillation counting analysis relative to control
# T2 sequence (whole entry): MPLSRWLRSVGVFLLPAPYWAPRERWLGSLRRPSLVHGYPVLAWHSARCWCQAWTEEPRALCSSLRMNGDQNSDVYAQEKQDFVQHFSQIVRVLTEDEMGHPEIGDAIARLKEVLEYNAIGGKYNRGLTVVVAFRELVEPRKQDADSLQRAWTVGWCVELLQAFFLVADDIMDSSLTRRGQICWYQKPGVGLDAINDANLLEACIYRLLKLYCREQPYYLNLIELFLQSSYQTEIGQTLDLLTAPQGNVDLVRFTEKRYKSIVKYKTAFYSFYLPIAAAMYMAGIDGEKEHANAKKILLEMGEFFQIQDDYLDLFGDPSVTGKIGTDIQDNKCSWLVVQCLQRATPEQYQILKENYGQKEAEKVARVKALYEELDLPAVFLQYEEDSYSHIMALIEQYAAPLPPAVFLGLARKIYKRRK
# MIA PaCa-2 [7] = test: Induction of apoptosis in human MIA PaCa-2 cells at 1 uM incubated for 72 hrs in presence of geranylgeraniol by APC-Annexin-V/7-AAD staining based flow cytometry; assay type: functional, cell-based
# RPMI-8226 [8] = test: cells; details: Homo sapiens, RPMI-8226, 72 h
# [9] = Metabolic stability in Beagle dog liver microsomes assessed as compound remaining incubated for 45 mins in absence of NADPH by LC-MS/MS analysis; assay type: ADME, Canis lupus familiaris, Microsome; details: 0.75 h
# MIA PaCa-2 [10] = test: Antitumor activity against human MIA PaCa-2 cells xenografted in NSG mouse assessed as improvement in animal survival rate at 3 mg/kg, ip administered 3 times a week for 26 days and measured 60 days post last dose; assay type: functional, organism-based; details: time 86.0 day
# [11] = Hepatotoxicity in female NSG mouse xenografted with human RPMI-8226 cells assessed as single-cell necrosis at 3 mg/kg, ip administered 3 times a week for 26 days and measured 48 hrs post last dose by H and E staining based assay; assay type: toxicity, organism-based; details: in vivo, 672 h, time 28 day
# MIA PaCa-2 [12] = test: Induction of apoptosis in human MIA PaCa-2 cells assessed as necrotic cells at 1 uM incubated for 72 hrs by APC-Annexin-V/7-AAD staining based flow cytometry (reference value: 0.75%); assay type: functional
# RPMI-8226 [13] = test: Antiproliferative activity against human RPMI-8226 cells harboring KRAS G12A mutant at 0.1 to 10000 nM incubated for 72 hrs by MTS assay; assay type: functional, cell-based; details: dose 0.1-10000 nM
# [14] = Toxicity in NSG mouse xenografted with human MIA PaCa-2 cells assessed as reduction in mobility at 3 mg/kg, ip administered 3 times a week for 26 days and measured daily; assay type: organism-based; details: in vivo, time 26 day
# MIA PaCa-2 [15] = test: Antitumor activity against human MIA PaCa-2 cells xenografted in NSG mouse assessed as difference in tumor volume at 3 mg/kg, ip administered 3 times a week for 26 days and measured 48 hrs post last dose; assay type: functional, organism-based; details: time 28.0 day
# Cytochrome P450 2C9 = Cytochrome P450 2C9 (Homo sapiens, UniProt P11712); test: Inhibition of CYP2C9 (unknown origin); assay type: ADME
# [16] = Toxicity in NSG mouse xenografted with human MIA PaCa-2 cells assessed as morbidity at 3 mg/kg, ip administered 3 times a week for 26 days and measured daily; assay type: organism-based; details: in vivo, time 26 day
# [17] = Selectivity index, ratio of EC50 for human MIA PaCa-2 cells to EC50 for human RPMI-8226 cells; assay type: functional
# MIA PaCa-2 [18] = test: Induction of apoptosis in human MIA PaCa-2 cells assessed as late apoptotic cells at 1 uM incubated for 72 hrs by APC-Annexin-V/7-AAD staining based flow cytometry (reference value: 0.29%); assay type: functional
# HCT-116 [19] = test: Induction of apoptosis in human HCT-116 cells assessed as live cells at 1 uM incubated for 72 hrs by APC-Annexin-V/7-AAD staining based flow cytometry (reference value: 95.3%); assay type: functional
# [20] = Toxicity in NSG mouse xenografted with human MIA PaCa-2 cells assessed as body weight gain at 3 mg/kg, ip administered 3 times a week for 26 days and measured daily; assay type: organism-based; details: in vivo, time 26 day
# [21] = Metabolic stability in human liver microsomes assessed as compound remaining incubated for 45 mins in absence of NADPH by LC-MS/MS analysis; assay type: ADME, Microsome; details: 0.75 h
# HCT-116 [22] = test: Induction of apoptosis in human HCT-116 cells assessed as live cells at 1 uM incubated for 72 hrs in presence of geranylgeraniol by APC-Annexin-V/7-AAD staining based flow cytometry (reference value: 95.3%); assay type: functional
# [23] = Metabolic stability in CD-1 mouse liver microsomes assessed as compound remaining incubated for 45 mins in absence of NADPH by LC-MS/MS analysis; assay type: ADME, Microsome; details: 0.75 h
# [24] = Toxicity in NSG mouse xenografted with human RPMI-8226 cells assessed as reduction in body weight at 3 mg/kg, ip administered 3 times a week for 26 days and measured daily; assay type: organism-based; details: in vivo, time 26 day
# KMS-12-PE = test: Antiproliferative activity against human KMS-12-PE cells harboring wild type KRAS at 0.1 to 10000 nM incubated for 72 hrs by MTS assay; assay type: functional, cell-based; details: dose 0.1-10000 nM
# Chain of Cytochrome P450 2C9 (P11712 whole entry): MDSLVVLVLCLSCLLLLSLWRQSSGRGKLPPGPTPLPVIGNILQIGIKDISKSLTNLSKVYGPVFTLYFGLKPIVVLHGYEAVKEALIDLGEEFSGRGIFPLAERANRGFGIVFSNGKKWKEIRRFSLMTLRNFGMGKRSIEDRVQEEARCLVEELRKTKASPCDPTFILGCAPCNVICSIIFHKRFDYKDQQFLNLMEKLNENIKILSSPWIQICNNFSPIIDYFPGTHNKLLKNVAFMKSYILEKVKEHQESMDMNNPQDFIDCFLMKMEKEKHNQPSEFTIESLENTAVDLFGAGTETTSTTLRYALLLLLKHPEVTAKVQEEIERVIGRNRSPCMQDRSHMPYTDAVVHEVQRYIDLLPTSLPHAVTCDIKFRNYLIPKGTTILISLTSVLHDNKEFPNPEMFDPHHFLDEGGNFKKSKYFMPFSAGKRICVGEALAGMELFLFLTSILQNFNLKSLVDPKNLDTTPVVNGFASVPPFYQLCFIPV
smiles,measurement,setting,value
Cn1ncc2c(NC(P(=O)(O)O)P(=O)(O)O)nc(-c3cccc(C(=O)Nc4ccc(C(F)(F)F)cc4)c3)nc21,IC50,[1],0.012 µM
same,Activity,HCT-116 [2],1.54%
same,Activity,[3],Non-Toxic
same,Activity,[4],Non-Toxic
same,Stability,[5],99.3%
same,inhibition,[6],< 10%
same,Activity,MIA PaCa-2 [7],inactive
same,EC50,RPMI-8226 [8],0.07 µM
same,Stability,[9],81.7%
same,Activity,MIA PaCa-2 [10],Active
same,Activity,[11],Non-Toxic
same,Activity,MIA PaCa-2 [12],13.4%
same,Activity,RPMI-8226 [13],Active
same,Activity,[14],Non-Toxic
same,Activity,MIA PaCa-2 [15],Active
same,IC50,Cytochrome P450 2C9,> 40 µM
same,Activity,[16],Non-Toxic
same,Ratio EC50,[17],~10
same,Activity,MIA PaCa-2 [18],41%
same,Activity,HCT-116 [19],56.6%
same,Activity,[20],Toxic
same,Stability,[21],100%
same,Activity,HCT-116 [22],93.2%
same,Stability,[23],121%
same,Activity,[24],Non-Toxic
same,Activity,KMS-12-PE,Active
